In brackets after ≈: the same amount, converted by molar mass. Where only a bound is given, the exact number is not on record here.

Experiment [1] concerns E. coli LZ3111. The experiment is described as follows: Antibacterial activity, MIC, quinolone resistant strain (Table 2). It is filed as cell-based. As to conditions: Escherichia coli, LZ3111, read-out: MIC LZ3111. The source says:
(§1) The antibacterial activity from a microbroth dilution method may be presented as the minimum inhibitory concentration (MIC in μg/mL). The MIC value is the lowest concentration of drug which prevents macroscopically visible growth under test conditions.
Mutations in these regions are known to confer a high level resistance to the quinolone class of antibiotics.

Experiment [2] relates to Escherichia coli (E. coli) BAS849. In words: Antibacterial activity, microbroth dilution MIC (Table 1). The class given is cell-based. The following applies: microbroth dilution, super sensitive Gram-negative E. coli BAS849, read-out: MIC, BAS849.
Source text: as §1
(§2) Antibacterial activity of test compounds against the super sensitive Gram-negative Escherichia coli (E. coli) BAS849 bacterium, the control Gram-negative E. coli 25922 strain and the Gram-positive Staphylococcus aureus (S. aureus) 29213 bacterium are shown in Table 1.

Experiment [3] deals with Staphylococcus aureus (S. aureus) 29213. The experiment is described as above. As to conditions: microbroth dilution, Gram-positive S. aureus 29213, read-out: MIC, 29213. It is filed as cell-based.
Source text: as §1, §2

For experiment [4], the system named is E. coli 25922. The description is as above. It is filed as cell-based, Escherichia coli. The following applies: Escherichia coli; microbroth dilution; control Gram-negative E. coli 25922 strain; read-out: MIC, 25922.
Source text: as §1, §2

For the compound `CCc1cc(C(=O)O)c(=O)[nH]c1-c1ccc2ccn(C)c2c1` [Cpd 7, 5-ethyl-6-(1-methyl-1H-indol-6-yl)-2-oxo-1,2-dihydropyridine-3-carboxylic acid], the MIC in experiment [1] is 12.5 to 150 µg/mL (≈ 42.2 to 506 µM); in experiment [2], 1 to 3.5 µg/mL (≈ 3.37 to 11.8 µM); in experiment [3], 12.5 to 150 µg/mL (≈ 42.2 to 506 µM); in experiment [4] it was 12.5 to 150 µg/mL (≈ 42.2 to 506 µM).

Regarding `CCc1c(-c2ccc3nc(C)oc3c2)[nH]c(=O)c(C(=O)O)c1O` [Cpd 12, 5-ethyl-4-hydroxy-6-(2-methylbenzo[d]oxazol-6-yl)-2-oxo-1,2-dihydropyridine-3-carboxylic acid], the MIC in experiment [1] is 12.5 to 150 µg/mL (≈ 39.8 to 477 µM); in experiment [2], 1 to 3.5 µg/mL (≈ 3.18 to 11.1 µM); in experiment [3], 12.5 to 150 µg/mL (≈ 39.8 to 477 µM); in experiment [4], 12.5 to 150 µg/mL (≈ 39.8 to 477 µM).

Turning to `CCc1cc(C(=O)O)c(=O)[nH]c1-c1cn(C)c2ccccc12` [Cpd 13, 5-ethyl-6-(1-methyl-1H-indol-3-yl)-2-oxo-1,2-dihydropyridine-3-carboxylic acid], the MIC lay in the range of 3.5 to 12.5 µg/mL (≈ 11.8 to 42.2 µM) in experiment [2], 12.5 to 150 µg/mL (≈ 42.2 to 506 µM) in experiment [3] and 12.5 to 150 µg/mL (≈ 42.2 to 506 µM) in experiment [4].

`CCc1cc(C(=O)O)c(=O)[nH]c1-c1ccc2nc(-c3ccccc3)oc2c1` [Cpd 15, 5-ethyl-2-oxo-6-(2-phenylbenzo[d]oxazol-6-yl)-1,2-dihydropyridine-3-carboxylic acid]: the minimal inhibitory concentration (MIC) in experiment [2] was in the range of 1 to 3.5 µg/mL (≈ 2.77 to 9.71 µM); in experiment [3], 12.5 to 150 µg/mL (≈ 34.7 to 416 µM); in experiment [4], 12.5 to 150 µg/mL (≈ 34.7 to 416 µM).

Turning to `CCc1c(-c2ccc3nc(-c4ccccc4)oc3c2)[nH]c(=O)c(C(=O)O)c1O` [Cpd 16, 5-ethyl-4-hydroxy-2-oxo-6-(2-phenylbenzo[d]oxazol-6-yl)-1,2-dihydropyridine-3-carboxylic acid], the MIC is 3.5 to 12.5 µg/mL (≈ 9.3 to 33.2 µM) in experiment [2], 1 to 3.5 µg/mL (≈ 2.66 to 9.3 µM) in experiment [3] and 12.5 to 150 µg/mL (≈ 33.2 to 399 µM) in experiment [4].

With `CCc1cc(C(=O)O)c(=O)[nH]c1-c1ccc2nc(N(C)C)oc2c1` [Cpd 17, 6-(2-(dimethylamino)benzo[d]oxazol-6-yl)-5-ethyl-2-oxo-1,2-dihydropyridine-3-carboxylic acid], the MIC lay in the range of 3.5 to 12.5 µg/mL (≈ 10.7 to 38.2 µM) in experiment [2], 1 to 3.5 µg/mL (≈ 3.05 to 10.7 µM) in experiment [3] and 12.5 to 150 µg/mL (≈ 38.2 to 458 µM) in experiment [4].

In the case of `CCc1c(-c2ccc3nc(N(C)C)oc3c2)[nH]c(=O)c(C(=O)O)c1O` [Cpd 18, 6-(2-(dimethylamino)benzo[d]oxazol-6-yl)-5-ethyl-4-hydroxy-2-oxo-1,2-dihydropyridine-3-carboxylic acid], the MIC in experiment [1] was in the range of 12.5 to 150 µg/mL (≈ 36.4 to 437 µM); in experiment [2] it was 3.5 to 12.5 µg/mL (≈ 10.2 to 36.4 µM); in experiment [3] it was 1 to 3.5 µg/mL (≈ 2.91 to 10.2 µM); in experiment [4] it was 12.5 to 150 µg/mL (≈ 36.4 to 437 µM).

As for `CCc1cc(C(=O)O)c(=O)[nH]c1-c1ccc2ncccc2c1` [Cpd 19, 5-ethyl-2-oxo-6-(quinolin-6-yl)-1,2-dihydropyridine-3-carboxylic acid], the minimum inhibitory concentration (MIC) in experiment [2], in experiment [3] and in experiment [4] was 12.5 to 150 µg/mL (≈ 42.5 to 510 µM) each time.

For the compound `CCc1cc(C(=O)O)c(=O)[nH]c1-c1ccc2c(ccn2CCO)c1` [Cpd 23, 5-ethyl-6-(1-(2-hydroxyethyl)-1H-indol-5-yl)-2-oxo-1,2-dihydropyridine-3-carboxylic acid], the minimal inhibitory concentration (MIC) in experiment [1] was 12.5 to 150 µg/mL (≈ 38.3 to 460 µM); in experiment [2], less than 1 µg/mL; in experiment [3] it was 12.5 to 150 µg/mL (≈ 38.3 to 460 µM); in experiment [4] it was 3.5 to 12.5 µg/mL (≈ 10.7 to 38.3 µM).

Take `CCc1cc(C(=O)O)c(=O)[nH]c1-c1ccc2c(ccn2CC2OCCO2)c1` [Cpd 25, 6-(1-((1,3-dioxolan-2-yl)methyl)-1H-indol-5-yl)-5-ethyl-2-oxo-1,2-dihydropyridine-3-carboxylic acid]: the minimum inhibitory concentration (MIC) in experiment [2] was less than 1 µg/mL; in experiment [3], 12.5 to 150 µg/mL (≈ 33.9 to 407 µM); in experiment [4], 12.5 to 150 µg/mL (≈ 33.9 to 407 µM).

With `CCc1c(-c2ccc3c(ccn3CC3OCCO3)c2)[nH]c(=O)c(C(=O)O)c1O` [Cpd 26, 6-(1-((1,3-dioxolan-2-yl)methyl)-1H-indol-5-yl)-5-ethyl-4-hydroxy-2-oxo-1,2-dihydropyridine-3-carboxylic acid], the figures for the minimum inhibitory concentration (MIC) in experiment [2], in experiment [3] and in experiment [4] were less than 1 µg/mL, 3.5 to 12.5 µg/mL (≈ 9.11 to 32.5 µM) and 12.5 to 150 µg/mL (≈ 32.5 to 390 µM), respectively.

With `CCc1cc(C(=O)O)c(=O)[nH]c1-c1ccc2c(c1)c1c(n2C)CCCC1` [Cpd 27, 5-ethyl-6-(9-methyl-2,3,4,9-tetrahydro-1H-carbazol-6-yl)-2-oxo-1,2-dihydropyridine-3-carboxylic acid], the minimal inhibitory concentration (MIC) in experiment [2] is less than 1 µg/mL; in experiment [3], 3.5 to 12.5 µg/mL (≈ 9.99 to 35.7 µM); in experiment [4], 12.5 to 150 µg/mL (≈ 35.7 to 428 µM).

As for `CCc1c(-c2ccc3c(c2)c2c(n3C)CCCC2)[nH]c(=O)c(C(=O)O)c1O` [Cpd 28, 5-ethyl-4-hydroxy-6-(9-methyl-2,3,4,9-tetrahydro-1H-carbazol-6-yl)-2-oxo-1,2-dihydropyridine-3-carboxylic acid], the MIC in experiment [1] is 12.5 to 150 µg/mL (≈ 34.1 to 409 µM); in experiment [2], 12.5 to 150 µg/mL (≈ 34.1 to 409 µM); in experiment [3], less than 1 µg/mL; in experiment [4], 12.5 to 150 µg/mL (≈ 34.1 to 409 µM).

As to `CCc1cc(C(=O)O)c(=O)[nH]c1-c1ccc2c(c1)c(C)c(C)n2C` [Cpd 29, 5-ethyl-2-oxo-6-(1,2,3-trimethyl-1H-indol-5-yl)-1,2-dihydropyridine-3-carboxylic acid], the MIC in experiment [2] was less than 1 µg/mL; in experiment [3] it was 12.5 to 150 µg/mL (≈ 38.5 to 462 µM); in experiment [4] it was 12.5 to 150 µg/mL (≈ 38.5 to 462 µM).

As to `CCc1c(-c2ccc3c(c2)c(C)c(C)n3C)[nH]c(=O)c(C(=O)O)c1O` [Cpd 30, 5-ethyl-4-hydroxy-2-oxo-6-(1,2,3-trimethyl-1H-indol-5-yl)-1,2-dihydropyridine-3-carboxylic acid], the MIC in experiment [1] lay in the range of 12.5 to 150 µg/mL (≈ 36.7 to 441 µM); in experiment [2], 1 to 3.5 µg/mL (≈ 2.94 to 10.3 µM); in experiment [3], 1 to 3.5 µg/mL (≈ 2.94 to 10.3 µM); in experiment [4], 12.5 to 150 µg/mL (≈ 36.7 to 441 µM).

As to `CC(C)c1c(-c2ccc3c(ccn3C)c2)[nH]c(=O)c(C(=O)O)c1O` [Cpd 34, 4-hydroxy-5-isopropyl-6-(1-methyl-1H-indol-5-yl)-2-oxo-1,2-dihydropyridine-3-carboxylic acid], the minimal inhibitory concentration (MIC) in experiment [2] is less than 1 µg/mL; in experiment [3] it was 1 to 3.5 µg/mL (≈ 3.06 to 10.7 µM); in experiment [4] it was 3.5 to 12.5 µg/mL (≈ 10.7 to 38.3 µM).

As for `CCc1cc(C(=O)O)c(=O)[nH]c1-c1cc2cc(C(=O)O)n(C)c2cn1` [Cpd 54, 5-(5-carboxy-3-ethyl-6-oxo-1,6-dihydropyridin-2-yl)-1-methyl-1H-pyrrolo[2,3-c]pyridine-2-carboxylic acid], the MIC in experiment [1] fell in the range of 12.5 to 150 µg/mL (≈ 36.6 to 439 µM); in experiment [2], 1 to 3.5 µg/mL (≈ 2.93 to 10.3 µM); in experiment [3], 12.5 to 150 µg/mL (≈ 36.6 to 439 µM); in experiment [4], 12.5 to 150 µg/mL (≈ 36.6 to 439 µM).

Consider `CCc1cc(C(=O)O)c(=O)[nH]c1-c1cnc2[nH]ccc2c1` [Cpd 55, 5-ethyl-2-oxo-6-(1H-pyrrolo[2,3-b]pyridin-5-yl)-1,2-dihydropyridine-3-carboxylic acid], for which the MIC in experiment [1], in experiment [2], in experiment [3] and in experiment [4] was 12.5 to 150 µg/mL (≈ 44.1 to 529 µM) each time.

Consider `CCc1cc(C(=O)O)c(=O)[nH]c1-c1ccc2c(c1)N(C)CCN2C` [Cpd 56, 6-(1,4-dimethyl-1,2,3,4-tetrahydroquinoxalin-6-yl)-5-ethyl-2-oxo-1,2-dihydropyridine-3-carboxylic acid], for which the MIC was in the range of 12.5 to 150 µg/mL (≈ 38.2 to 458 µM) in experiment [1], 3.5 to 12.5 µg/mL (≈ 10.7 to 38.2 µM) in experiment [2], 12.5 to 150 µg/mL (≈ 38.2 to 458 µM) in experiment [3] and 12.5 to 150 µg/mL (≈ 38.2 to 458 µM) in experiment [4].

`CCc1cc(C(=O)O)c(=O)[nH]c1-c1ccc2nccnc2c1` [Cpd 57, 5-ethyl-2-oxo-6-(quinoxalin-6-yl)-1,2-dihydropyridine-3-carboxylic acid]: the MIC in experiment [1], in experiment [2], in experiment [3] and in experiment [4] was 12.5 to 150 µg/mL (≈ 42.3 to 508 µM) in each case.

Turning to `CCc1cc(C(=O)O)c(=O)[nH]c1-c1cnc2c(c1)OCCN2C` [Cpd 58, 5-ethyl-6-(4-methyl-3,4-dihydro-2H-pyrido[3,2-b][1,4]oxazin-7-yl)-2-oxo-1,2-dihydropyridine-3-carboxylic acid], the minimal inhibitory concentration (MIC) in experiment [1] was 12.5 to 150 µg/mL (≈ 39.6 to 476 µM); in experiment [2] it was 3.5 to 12.5 µg/mL (≈ 11.1 to 39.6 µM); in experiment [3], 12.5 to 150 µg/mL (≈ 39.6 to 476 µM); in experiment [4], 12.5 to 150 µg/mL (≈ 39.6 to 476 µM).

Regarding `CCc1cc(C(=O)O)c(=O)[nH]c1-c1cnc2c(c1)c(C#N)cn2C` [Cpd 59, 6-(3-cyano-1-methyl-1H-pyrrolo[2,3-b]pyridin-5-yl)-5-ethyl-2-oxo-1,2-dihydropyridine-3-carboxylic acid], the MIC in experiment [1], in experiment [2], in experiment [3] and in experiment [4] was 12.5 to 150 µg/mL (≈ 38.8 to 465 µM) each time.

`CCc1cc(C(=O)O)c(=O)[nH]c1-c1ccc2nc(CN(C)C)cn2c1.Cl.Cl` [Cpd 60, 6-(2-((dimethylamino)methyl)imidazo[1,2-a]pyridin-6-yl)-5-ethyl-2-oxo-1,2-dihydropyridine-3-carboxylic acid dihydrochloride]: the MIC in experiment [1], in experiment [2], in experiment [3] and in experiment [4] was 12.5 to 150 µg/mL throughout.

With `CCc1cc(C(=O)O)c(=O)[nH]c1-c1ccc2nc(CN3CCCC3)cn2c1.Cl.Cl` [Cpd 61, 5-ethyl-2-oxo-6-(2-(pyrrolidin-1-ylmethyl)imidazo[1,2-a]pyridin-6-yl)-1,2-dihydropyridine-3-carboxylic acid dihydrochloride], the minimal inhibitory concentration (MIC) in experiment [1], in experiment [2], in experiment [3] and in experiment [4] was 12.5 to 150 µg/mL each time.

As for `CCc1cc(C(=O)O)c(=O)[nH]c1-c1ccc2nc(CN3CCCCC3)cn2c1.Cl.Cl` [Cpd 62, 5-ethyl-2-oxo-6-(2-(piperidin-1-ylmethyl)imidazo[1,2-a]pyridin-6-yl)-1,2-dihydropyridine-3-carboxylic acid dihydrochloride], the MIC in experiment [1], in experiment [2], in experiment [3] and in experiment [4] was 12.5 to 150 µg/mL each time.

The values are drawn from patent publication US9409905B2, “Antibacterial compounds and methods for use” (PTC THERAPEUTICS, INC., priority 2011, dated 2016).
